Measured values published in US20070238765A1, “Heterocyclic GABAA subtype selective receptor modulators” (Roche Palo Alto LLC, priority 2006, published 2007).

Tests used:
GABAA α2β3γ2 = target: T1, GABAA α2β3γ2 (Homo sapiens, UniProt P18507+P28472+P47869); experiment: 35S-TBPS binding assay, HEK293 membranes with GABAA α2β3γ2 construct; details: 35S-TBPS 5 nM, GABA 1 μM, 2 hours at room temperature, read-out: α2β3γ2 (35S-TBPS binding, pIC50) (converted)
T1 construct: expressed in transfected cells; host or cells: HEK293
T1 sequence (P47869 29-451): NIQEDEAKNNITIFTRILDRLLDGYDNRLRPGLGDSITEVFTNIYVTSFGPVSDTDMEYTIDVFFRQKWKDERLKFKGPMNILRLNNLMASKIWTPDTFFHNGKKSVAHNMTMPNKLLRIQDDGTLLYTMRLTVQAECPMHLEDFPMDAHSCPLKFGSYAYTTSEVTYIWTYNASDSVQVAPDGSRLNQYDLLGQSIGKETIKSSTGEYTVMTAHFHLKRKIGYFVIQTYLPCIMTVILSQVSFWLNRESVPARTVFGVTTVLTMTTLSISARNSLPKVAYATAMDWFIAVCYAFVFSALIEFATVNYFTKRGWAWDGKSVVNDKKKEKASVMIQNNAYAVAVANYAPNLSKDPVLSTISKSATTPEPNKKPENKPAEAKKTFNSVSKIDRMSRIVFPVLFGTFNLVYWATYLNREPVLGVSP
T1 sequence (P28472 26-473): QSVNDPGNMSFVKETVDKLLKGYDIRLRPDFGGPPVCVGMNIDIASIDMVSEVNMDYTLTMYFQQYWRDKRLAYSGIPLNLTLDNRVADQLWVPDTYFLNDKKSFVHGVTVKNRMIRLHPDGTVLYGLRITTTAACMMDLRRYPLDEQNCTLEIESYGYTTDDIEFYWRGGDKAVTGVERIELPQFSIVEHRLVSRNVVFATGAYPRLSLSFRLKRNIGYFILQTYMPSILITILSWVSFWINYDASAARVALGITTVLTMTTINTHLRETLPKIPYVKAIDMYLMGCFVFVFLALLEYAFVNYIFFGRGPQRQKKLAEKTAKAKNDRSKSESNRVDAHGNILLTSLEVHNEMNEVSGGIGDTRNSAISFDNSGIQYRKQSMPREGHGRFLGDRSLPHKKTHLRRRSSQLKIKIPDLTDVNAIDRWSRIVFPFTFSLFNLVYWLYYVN
T1 sequence (P18507 40-475): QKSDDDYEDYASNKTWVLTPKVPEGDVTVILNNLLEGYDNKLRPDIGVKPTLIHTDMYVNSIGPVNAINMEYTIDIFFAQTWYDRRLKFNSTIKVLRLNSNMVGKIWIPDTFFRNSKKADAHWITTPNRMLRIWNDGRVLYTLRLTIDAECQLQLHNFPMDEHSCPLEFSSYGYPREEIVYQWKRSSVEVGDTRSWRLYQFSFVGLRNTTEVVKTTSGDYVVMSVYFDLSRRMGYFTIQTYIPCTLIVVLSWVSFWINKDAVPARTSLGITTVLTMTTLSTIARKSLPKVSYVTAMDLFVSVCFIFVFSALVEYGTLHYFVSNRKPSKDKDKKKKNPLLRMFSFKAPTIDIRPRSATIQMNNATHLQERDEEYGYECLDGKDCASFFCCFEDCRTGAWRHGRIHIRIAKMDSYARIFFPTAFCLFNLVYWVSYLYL
Protocol: (§1) The binding assay is based on the assay reported by K. Gee et al., Eur. J. Pharmacol. 1987, 136, 419-423.
(§2) Homogenate preparation: Membrane preparations of HEK293 cells containing either GABAA α1β2γ2 or GABAA α2β3γ2 constructs were performed according to a modified procedure previously described by Gee et al. (supra). Whole HEK 293 cells in D-PBS (calcium/magnesium free) buffer adjusted to pH 7.4 were centrifuged at 7,280×g for 20 m. After discarding the supernatant, the pellet was resuspended in the buffer and centrifuged at 1,820×g for 10 m. Afterwards, the supernatant was discarded and the pellet resuspended in ice-cold preparation buffer (50 mM Tris HCl pH 7.4, 4° C. and 150 mM KCl), homogenized for 30 sec using a Brinkmann Polytron PT3000 (setting 6) and centrifuged at 48,000×g for 30 m at 4° C. The centrifugation and homogenization procedure was repeated two more times for a total of 3 times before resuspending the membranes at a final protein concentration of 0.5 mg/mL. Aliquots (30 mL) of the final membrane preparation were then centrifuged at 48,000×g for 30 m, and the resulting pellets were stored at −80° C. until required.
(§3) 35S-TBPS binding assay. Membrane pellets containing either GABAA α1β2γ2 or GABAA α2β3γ2 constructs were thawed on ice, resuspended in 10 mL of 50 mM Tris HCl pH7.4, 4° C. and 150 mM KCl and centrifuged at 48,000×g, 30 m at 4° C. After discarding the supernatant, the pellet was resuspended in 30 mL incubation buffer (50 mM Tris HCl pH 7.4, 25° C. and 150 mM KCl) at approximately 0.5 mg/mL protein concentration. In 35S-TBPS competition studies, HEK293 membranes were incubated with 35S-TBPS (5 nM final) and GABA (1 μM) in the absence or presence of competitor at concentrations ranging from 0.01 nM to 10 μM in 125 μL incubation buffer for 2 hours at room temperature (˜22° C.). Non-specific binding was assayed with picrotoxin (100 μM final concentration). The binding reaction was terminated by vacuum filtration through GF/B filters previously soaked in 0.1% polyethylenimine followed by 3×1 mL washes with ice cold wash buffer (50 mM Tris HCl pH7.4, 4° C. and 150 mM KCl). Measurement of bound radioactivity was performed using a Packard Microplate 96 well topcount scintillation counter. Analysis of competition curves and estimation of pIC50 values of test compounds were performed using the software programs ActivityBase and/or Prism (version 3.0).

GABAA α1β2γ2 = target: T2, GABAA α1β2γ2 (Homo sapiens, UniProt P14867+P18507+P47870); experiment: 35S-TBPS binding assay, HEK293 membranes with GABAA α1β2γ2 construct; details: 35S-TBPS 5 nM, GABA 1 μM, 2 hours at room temperature, read-out: α1β2γ2 (35S-TBPS binding, pIC50) (converted)
T2 construct: expressed in transfected cells; host or cells: HEK293
T2 sequence (P14867 28-456): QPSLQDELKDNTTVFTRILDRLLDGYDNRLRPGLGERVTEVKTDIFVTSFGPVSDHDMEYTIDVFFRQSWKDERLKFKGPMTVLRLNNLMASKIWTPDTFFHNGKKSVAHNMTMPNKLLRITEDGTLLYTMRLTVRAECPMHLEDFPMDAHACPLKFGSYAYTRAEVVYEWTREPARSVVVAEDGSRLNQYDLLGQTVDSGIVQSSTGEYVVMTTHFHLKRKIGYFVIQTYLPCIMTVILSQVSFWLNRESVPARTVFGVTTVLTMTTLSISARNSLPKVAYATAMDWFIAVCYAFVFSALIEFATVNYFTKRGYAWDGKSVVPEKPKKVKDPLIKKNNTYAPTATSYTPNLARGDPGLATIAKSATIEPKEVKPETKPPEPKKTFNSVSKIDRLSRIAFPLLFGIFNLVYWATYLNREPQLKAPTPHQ
T2 sequence (P47870 25-512 limits assumed): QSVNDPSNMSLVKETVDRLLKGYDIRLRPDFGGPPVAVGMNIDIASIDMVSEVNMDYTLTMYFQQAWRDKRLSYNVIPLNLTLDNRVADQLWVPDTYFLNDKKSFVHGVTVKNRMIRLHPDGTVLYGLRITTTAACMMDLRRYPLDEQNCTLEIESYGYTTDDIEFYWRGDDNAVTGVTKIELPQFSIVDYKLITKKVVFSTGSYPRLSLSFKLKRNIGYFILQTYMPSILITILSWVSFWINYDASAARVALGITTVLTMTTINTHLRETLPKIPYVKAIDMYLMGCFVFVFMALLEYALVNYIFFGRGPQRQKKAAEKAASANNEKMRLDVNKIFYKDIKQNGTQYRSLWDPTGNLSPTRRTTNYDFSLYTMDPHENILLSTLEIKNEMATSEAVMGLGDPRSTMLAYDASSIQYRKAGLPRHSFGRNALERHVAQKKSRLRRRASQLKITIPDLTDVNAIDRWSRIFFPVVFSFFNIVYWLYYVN
T2 sequence (P18507 40-475): as the sequence (P18507 40-475) above
Protocol: as §1, §2, §3

IC50 (GABAA α2β3γ2) | IC50 (GABAA α1β2γ2) | Compound
1620 nM | > 10000 nM | COCn1ncnc1C(=O)c1c2cccc(-c3ccc(Cl)cc3Cl)c2nn1C [I-19, [7-(2,4-Dichloro-phenyl)-2-meth-yl-2H-indazol-3-yl]-(2-meth-oxymethyl-2H-[1,2,4]tri-azol-3-yl)-meth-anone]
3630 nM | > 10000 nM | Cn1nc2c(-c3ccc(Cl)cc3Cl)cccc2c1N1C(=O)CCC1=O [I-44, 1-[7-(2,4-Dichloro-phenyl)-2-meth-yl-2H-indazol-3-yl]-pyr-rolidine-2,5-dione]
372 nM | 2240 nM | Cn1nc2c(-c3ccc(Cl)cc3Cl)cccc2c1Cn1ncnn1 [I-49, 7-(2,4-Dichloro-phenyl)-2-meth-yl-3-tetrazol-2-yl-methyl-2H-indazole]
692 nM | 2950 nM | Cn1nc2c(-c3ccc(Cl)cc3Cl)cccc2c1-c1nnn[nH]1 [I-54, 7-(2,4-Dichloro-phenyl)-2-meth-yl-3-(1H-tetrazol-5-yl)-2H-inda-zole]
832 nM | 8910 nM | Cn1nc2c(-c3ccc(Cl)cc3Cl)cccc2c1Cn1cnnn1 [I-43, 7-(2,4-Dichloro-phenyl)-2-meth-yl-3-tetrazol-1-yl-methyl-2H-indazole]
– | > 10000 nM | CN(C)S(=O)(=O)n1ccnc1C(O)c1c2cccc(-c3ccc(Cl)cc3Cl)c2nn1C (stereo not drawn) [I-35, 2-{[7-(2,4-Dichloro-phenyl)-2-meth-yl-2H-indazol-3-yl]-hydroxy-methyl}-imidazole-1-sulfonicacid dimethyl-amide]

Further lines, the compound ahead of its results:

Compound | IC50 (GABAA α2β3γ2) | IC50 (GABAA α1β2γ2)
Cn1nc2c(-c3ccc(Cl)cc3Cl)cccc2c1C(O)c1ncc[nH]1 (stereo not drawn) [I-28, [7-(2,4-Dichloro-phenyl)-2-meth-yl-2H-indazol-3-yl]-(1H-imi-dazol-2-yl)-methanol] | 148 nM | 575 nM
Cn1nc2c(-c3ccc(Cl)cc3Cl)cccc2c1Cc1ncc[nH]1 [I-21, 7-(2,4-Dichloro-phenyl)-3-(1H-imi-dazol-2-ylmethyl)-2-meth-yl-2H-indazole] | 550 nM | 3550 nM
Cn1nc2c(-c3ccc(Cl)cc3Cl)cccc2c1Cc1nnnn1CS(C)(=O)=O [I-9, 7-(2,4-Dichloro-phenyl)-3-(1-meth-anesulfonylmethyl-1H-tetra-zol-5-ylmethyl)-2-meth-yl-2H-indazole] | > 10000 nM | > 10000 nM
CCOC(=O)Cc1nnnn1Cc1c2cccc(-c3ccc(Cl)cc3Cl)c2nn1C [I-7, {1-[7-(2,4-Dichloro-phenyl)-2-meth-yl-2H-indazol-3-yl-methyl]-1H-tetrazol-5-yl}-aceticacid ethyl ester] | 2690 nM | > 10000 nM
Cn1nc2c(-c3ccc(Cl)cc3Cl)cccc2c1Cn1ccnn1 [I-16, 7-(2,4-Dichloro-phenyl)-2-meth-yl-3-[1,2,3]triazol-1-yl-methyl-2H-indazole] | 1200 nM | 5890 nM
Cn1nc2c(-c3ccc(Cl)cc3Cl)cccc2c1C(O)c1cnc[nH]1 (stereo not drawn) [I-27, [7-(2,4-Dichloro-phenyl)-2-meth-yl-2H-indazol-3-yl]-(3H-imi-dazol-4-yl)-methanol] | 550 nM | 2340 nM
Cn1nc2c(-c3ccc(Cl)cc3Cl)cccc2c1C(=O)c1ncc[nH]1 [I-30, [7-(2,4-Dichloro-phenyl)-2-meth-yl-2H-indazol-3-yl]-(1H-imi-dazol-2-yl)-meth-anone] | 166 nM | 4470 nM
Cn1nc2c(-c3ccc(Cl)cc3Cl)cccc2c1Cc1cnc[nH]1 [I-25, 7-(2,4-Dichloro-phenyl)-3-(3H-imi-dazol-4-ylmethyl)-2-meth-yl-2H-indazole] | 1150 nM | > 10000 nM
Cn1nc2c(-c3ccc(Cl)cc3Cl)cccc2c1Cn1nccn1 [I-17, 7-(2,4-Dichloro-phenyl)-2-meth-yl-3-[1,2,3]triazol-2-yl-methyl-2H-indazole] | 427 nM | > 10000 nM
COC(=O)c1cncn1Cc1c2cccc(-c3ccc(Cl)cc3Cl)c2nn1C [I-13, 3-[7-(2,4-Dichloro-phenyl)-2-meth-yl-2H-indazol-3-yl-methyl]-3H-imidazole-4-carboxy-lic acid methyl ester] | 912 nM | –
